Patent US10406146B2, “Heterocyclic compound” (TAKEDA PHARMACEUTICAL COMPANY LIMITED, priority 2015, dated 2019)

How the values were obtained:
Assay type in all cases: biochemical
HDAC1 enzyme = target: T1, HDAC1 enzyme (Homo sapiens, UniProt Q13547); assay: HDAC1 enzyme inhibitory assay (HDAC-Glo I/II Assay kit); conditions: wells without enzyme = 100% inhibition; for inhibition at 1 µM: read-out: HDAC1 inhibitory rate (%) (1 μM)
T1 construct: transducing full length HDAC1 and HDAC6 genes into Sf-9 insect cells; GST; purchased SignalChem; host or cells: Sf-9 insect cells
Description: (§1) HDAC1/6 Enzyme Inhibitory Assay
(§2) HDAC1 enzyme and HDAC6 enzyme each prepared by transducing full length HDAC1 and HDAC6 genes into Sf-9 insect cells and purifying by GST affinity column were purchased from SignalChem. Using these enzymes, HDAC1 and/or HDAC6 enzyme inhibitory activities of the compound of the present invention were evaluated. Enzymes were used after preserved at −70° C. HDAC1 or HDAC6 enzyme inhibitory activity of the compound of the present invention was measured using HDAC-Glo™ I/II Assay kit (Promega) according to the following experimental method. The test compound diluted with assay buffer (24 mM Tris-HCl (pH 7.5), 1 mM MgCl2, 0.35 mM KCl, 135 mM NaCl, 0.6 mM Glutathione, 0.01% Tween-20) was added to a 384-well plate by each 2 μL. Then, HDAC1 or HDAC6 enzyme solution diluted with assay buffer was added thereto by each 4 μL, and the plate was incubated at room temperature for 60 min. After incubated, HDAC substrate-Developer solution prepared according to Promega protocol attached to the assay kit was added to the 384-well plate by each 2 μL, and the enzyme reaction was started. After reacting at room temperature for 20 min, luminescence level was measured using plate reader Envision (PerkinElmer). The inhibitory activity of each compound was calculated as a relative activity value when luminescence level in wells without enzyme is considered as 100% inhibition.

HDAC6 enzyme = target: T2, HDAC6 enzyme (Homo sapiens, UniProt Q9UBN7); assay: HDAC6 enzyme inhibitory assay (HDAC-Glo I/II Assay kit); conditions: wells without enzyme = 100% inhibition; for inhibition at 1 µM: read-out: HDAC6 inhibitory rate (%) (1 μM)
T2 construct: transducing full length HDAC1 and HDAC6 genes into Sf-9 insect cells; GST; purchased SignalChem; host or cells: Sf-9 insect cells
T2 sequence (Q9UBN7 1-1215): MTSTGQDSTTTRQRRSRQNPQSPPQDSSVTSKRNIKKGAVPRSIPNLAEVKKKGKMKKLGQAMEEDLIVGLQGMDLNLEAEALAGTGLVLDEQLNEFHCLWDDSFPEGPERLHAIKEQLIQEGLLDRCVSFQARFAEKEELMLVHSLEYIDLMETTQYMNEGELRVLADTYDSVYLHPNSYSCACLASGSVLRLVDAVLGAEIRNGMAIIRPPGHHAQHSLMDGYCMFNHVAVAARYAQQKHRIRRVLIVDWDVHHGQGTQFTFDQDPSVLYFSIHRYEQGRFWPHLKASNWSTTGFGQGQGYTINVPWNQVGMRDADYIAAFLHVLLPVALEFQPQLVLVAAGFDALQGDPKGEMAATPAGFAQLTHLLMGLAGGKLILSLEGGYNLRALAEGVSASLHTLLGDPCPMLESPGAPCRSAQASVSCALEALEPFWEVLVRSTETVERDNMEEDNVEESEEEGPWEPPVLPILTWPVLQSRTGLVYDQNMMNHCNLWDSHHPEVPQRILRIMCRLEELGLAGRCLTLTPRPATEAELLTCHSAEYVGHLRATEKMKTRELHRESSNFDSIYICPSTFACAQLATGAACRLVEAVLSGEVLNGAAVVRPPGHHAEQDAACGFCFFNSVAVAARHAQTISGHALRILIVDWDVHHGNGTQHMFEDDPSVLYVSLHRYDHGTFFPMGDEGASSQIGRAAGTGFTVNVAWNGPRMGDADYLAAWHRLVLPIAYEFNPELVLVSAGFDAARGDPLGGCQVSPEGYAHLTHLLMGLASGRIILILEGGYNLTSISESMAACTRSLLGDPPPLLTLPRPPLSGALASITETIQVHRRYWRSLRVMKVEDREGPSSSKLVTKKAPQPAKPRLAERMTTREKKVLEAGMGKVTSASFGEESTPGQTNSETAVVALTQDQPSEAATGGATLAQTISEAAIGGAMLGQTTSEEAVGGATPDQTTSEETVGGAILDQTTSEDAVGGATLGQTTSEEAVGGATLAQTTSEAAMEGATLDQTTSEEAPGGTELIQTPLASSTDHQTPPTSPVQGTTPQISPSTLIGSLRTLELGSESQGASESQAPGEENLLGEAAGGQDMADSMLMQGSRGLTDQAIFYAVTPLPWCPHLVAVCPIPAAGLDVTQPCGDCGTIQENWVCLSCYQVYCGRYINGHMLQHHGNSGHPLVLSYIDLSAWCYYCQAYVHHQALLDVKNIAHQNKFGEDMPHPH
Description: as §1, §2

HDAC9 enzyme = target: T3, HDAC9 enzyme (Homo sapiens, UniProt Q9UKV0); assay: HDAC9 enzyme inhibitory assay (HDAC-Glo class IIa); conditions: wells without enzyme = 100% inhibition; for inhibition at 1 µM: read-out: HDAC9 inhibitory rate (%) (1 μM)
T3 construct: transducing full length HDAC9 gene into Sf-9 insect cells; made in house; host or cells: Sf-9 insect cells
Description: HDAC9 Enzyme Inhibitory Assay
Enzyme was prepared by transducing full length HDAC9 gene into Sf-9 insect cells and purifying by Ni-NTA affinity column, and HDAC9 enzyme inhibitory activity was evaluated. Enzymes were used after preserved at −70° C. HDAC9 enzyme inhibitory activity of the test compound was measured using HDAC-Glo class IIa (Promega) according to the following experimental method. The test compound diluted with assay buffer (24 mM Tris-HCl (pH 7.5), 1 mM MgCl2, 0.35 mM KCl, 135 mM NaCl, 0.6 mM Glutathione, 0.01% Tween-20) was added to a 384-well plate by each 2 μL. Then, HDAC9 enzyme solution diluted with assay buffer was added thereto by each 2 μL, and the plate was incubated at room temperature for 60 min. After incubated, HDAC substrate-Developer solution prepared according to Promega protocol was added to the 384-well plate by each 4 μL, and the enzyme reaction was started. After reacting at room temperature for 20 min, luminescence level was measured using plate reader Envision (PerkinElmer). The inhibitory activity of each compound was calculated as a relative activity value when luminescence level in wells without enzyme is considered as 100% inhibition.

T1 sequence (Q13547 whole entry): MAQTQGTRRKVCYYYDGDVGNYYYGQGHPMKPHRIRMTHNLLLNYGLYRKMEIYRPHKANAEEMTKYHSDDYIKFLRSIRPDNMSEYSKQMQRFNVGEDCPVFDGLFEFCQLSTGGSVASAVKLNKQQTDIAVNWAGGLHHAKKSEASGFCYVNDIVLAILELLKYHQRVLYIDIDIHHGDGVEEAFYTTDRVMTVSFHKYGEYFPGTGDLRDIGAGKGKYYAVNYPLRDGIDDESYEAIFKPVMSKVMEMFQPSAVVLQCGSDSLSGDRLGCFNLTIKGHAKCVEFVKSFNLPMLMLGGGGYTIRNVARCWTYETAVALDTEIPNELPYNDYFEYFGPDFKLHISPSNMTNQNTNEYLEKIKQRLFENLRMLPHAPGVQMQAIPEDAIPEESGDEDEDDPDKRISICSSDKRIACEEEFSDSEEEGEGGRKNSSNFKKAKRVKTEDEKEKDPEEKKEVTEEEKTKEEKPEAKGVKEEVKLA
T3 sequence (Q9UKV0 whole entry, species assumed): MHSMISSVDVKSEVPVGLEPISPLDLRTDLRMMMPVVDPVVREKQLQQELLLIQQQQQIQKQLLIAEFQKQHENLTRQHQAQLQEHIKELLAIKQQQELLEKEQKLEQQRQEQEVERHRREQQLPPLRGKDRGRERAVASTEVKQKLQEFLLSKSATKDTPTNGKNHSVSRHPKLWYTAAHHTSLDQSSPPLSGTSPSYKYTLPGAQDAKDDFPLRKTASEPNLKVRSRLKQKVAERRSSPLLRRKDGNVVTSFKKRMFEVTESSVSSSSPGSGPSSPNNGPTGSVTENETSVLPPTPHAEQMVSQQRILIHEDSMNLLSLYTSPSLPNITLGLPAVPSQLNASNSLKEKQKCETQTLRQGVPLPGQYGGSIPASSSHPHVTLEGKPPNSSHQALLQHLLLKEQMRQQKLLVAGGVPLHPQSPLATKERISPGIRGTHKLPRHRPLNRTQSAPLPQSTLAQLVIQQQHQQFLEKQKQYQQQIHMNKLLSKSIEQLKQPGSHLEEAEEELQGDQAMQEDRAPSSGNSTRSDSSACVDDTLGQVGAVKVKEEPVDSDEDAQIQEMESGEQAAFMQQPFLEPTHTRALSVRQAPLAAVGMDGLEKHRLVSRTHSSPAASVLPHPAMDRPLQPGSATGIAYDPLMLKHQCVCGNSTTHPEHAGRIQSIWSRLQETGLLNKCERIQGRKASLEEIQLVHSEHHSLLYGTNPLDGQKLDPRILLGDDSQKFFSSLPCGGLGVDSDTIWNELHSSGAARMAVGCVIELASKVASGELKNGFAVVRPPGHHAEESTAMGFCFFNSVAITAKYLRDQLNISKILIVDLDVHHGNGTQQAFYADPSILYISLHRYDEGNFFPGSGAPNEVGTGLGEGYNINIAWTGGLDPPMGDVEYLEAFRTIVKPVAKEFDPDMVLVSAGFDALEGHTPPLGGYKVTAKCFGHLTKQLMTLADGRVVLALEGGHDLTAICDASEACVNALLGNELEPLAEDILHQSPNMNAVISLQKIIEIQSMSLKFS

Compound | inhibition at 1 µM (HDAC1 enzyme) [%] | inhibition at 1 µM (HDAC6 enzyme) [%] | inhibition at 1 µM (HDAC9 enzyme) [%] | HDAC1 inhibitory rate (%) (1 μM) (HDAC1 enzyme) | HDAC6 inhibitory rate (%) (1 μM) (HDAC6 enzyme) | HDAC9 inhibitory rate (%) (1 μM) (HDAC9 enzyme)
CN(C)c1cccc(C(=O)NCC2CCCCN2C(=O)Nc2ccc(-c3noc(C(F)(F)F)n3)cc2)c1 (stereo not drawn) [Example 28, 2-(((3-(dimethylamino)benzoyl)amino)methyl)-N-(4-(5-(trifluoromethyl)-1,2,4-oxadiazol-3-yl)phenyl)piperidine-1-carboxamide] | 4 | 2 | 86 | – | – | –
CN(C)c1ccc(C(=O)NCC2CCCCN2C(=O)Nc2ccc(-c3noc(C(F)(F)F)n3)cc2)cc1 (stereo not drawn) [Example 29, 2-(((4-(dimethylamino)benzoyl)amino)methyl)-N-(4-(5-(trifluoromethyl)-1,2,4-oxadiazol-3-yl)phenyl)piperidine-1-carboxamide] | 1 | 1 | 88 | – | – | –
O=C(NCC1CCCCN1C(=O)Nc1ccc(-c2noc(C(F)(F)F)n2)cc1)c1cccc(Cl)c1Cl (stereo not drawn) [Example 30, 2-(((2,3-dichlorobenzoyl)amino)methyl)-N-(4-(5-(trifluoromethyl)-1,2,4-oxadiazol-3-yl)phenyl)piperidine-1-carboxamide] | 4 | 1 | 70 | – | – | –
O=C(NCC1CCCCN1C(=O)Nc1ccc(-c2noc(C(F)(F)F)n2)cc1)c1ccc(Cl)cc1Cl (stereo not drawn) [Example 31] | – | – | – | −12 | −1 | 38
O=C(NCC1CCCCN1C(=O)Nc1ccc(-c2noc(C(F)(F)F)n2)cc1)c1ccc(Cl)c(Cl)c1 (stereo not drawn) [Example 32, 2-(((3,4-dichlorobenzoyl)amino)methyl)-N-(4-(5-(trifluoromethyl)-1,2,4-oxadiazol-3-yl)phenyl)piperidine-1-carboxamide] | -10 | 0 | 62 | – | – | –
O=C(NCC1CCCCN1C(=O)Nc1ccc(-c2noc(C(F)(F)F)n2)cc1)c1cc(Cl)cc(Cl)c1 (stereo not drawn) [Example 33, 2-(((3,5-dichlorobenzoyl)amino)methyl)-N-(4-(5-(trifluoromethyl)-1,2,4-oxadiazol-3-yl)phenyl)piperidine-1-carboxamide] | -5 | 0 | 48 | – | – | –
O=C(NCC1CCCCN1C(=O)Nc1ccc(-c2noc(C(F)(F)F)n2)cc1)c1ccccn1 (stereo not drawn) [Example 34, N-((1-((4-(5-(trifluoromethyl)-1,2,4-oxadiazol-3-yl)phenyl)carbamoyl)piperidin-2-yl)methyl)pyridine-2-carboxamide] | 28 | 4 | 84 | – | – | –
O=C(NCC1CCCCN1C(=O)Nc1ccc(-c2noc(C(F)(F)F)n2)cc1)c1cccnc1 (stereo not drawn) [Example 35, N-((1-((4-(5-(trifluoromethyl)-1,2,4-oxadiazol-3-yl)phenyl)carbamoyl)piperidin-2-yl)methyl)nicotinamide] | 58 | 4 | 96 | – | – | –
O=C(NCC1CCCCN1C(=O)Nc1ccc(-c2noc(C(F)(F)F)n2)cc1)c1ccncc1 (stereo not drawn) [Example 36, N-((1-((4-(5-(trifluoromethyl)-1,2,4-oxadiazol-3-yl)phenyl)carbamoyl)piperidin-2-yl)methyl)isonicotinamide] | 63 | 5 | 97 | – | – | –
O=C(NCC1CCCCN1C(=O)Nc1ccc(-c2noc(C(F)(F)F)n2)cc1)c1cc[n+]([O-])cc1 (stereo not drawn) [Example 37, N-((1-((4-(5-(trifluoromethyl)-1,2,4-oxadiazol-3-yl)phenyl)carbamoyl)piperidin-2-yl)methyl)isonicotinamide 1-oxide] | 2 | 2 | 88 | – | – | –
O=C(NCC1CCCCN1C(=O)Nc1ccc(-c2noc(C(F)(F)F)n2)cc1)c1cccs1 (stereo not drawn) [Example 38, 2-(((2-thienylcarbonyl)amino)methyl)-N-(4-(5-(trifluoromethyl)-1,2,4-oxadiazol-3-yl)phenyl)piperidine-1-carboxamide] | 37 | 7 | 95 | – | – | –
Cn1ccnc1C(=O)NCC1CCCCN1C(=O)Nc1ccc(-c2noc(C(F)(F)F)n2)cc1 (stereo not drawn) [Example 39, 2-((((1-methyl-1H-imidazol-2-yl)carbonyl)amino)methyl)-N-(4-(5-(trifluoromethyl)-1,2,4-oxadiazol-3-yl)phenyl)piperidine-1-carboxamide] | 47 | 5 | 90 | – | – | –
Cn1cnc(C(=O)NCC2CCCCN2C(=O)Nc2ccc(-c3noc(C(F)(F)F)n3)cc2)c1 (stereo not drawn) [Example 40, 2-((((1-methyl-1H-imidazol-4-yl)carbonyl)amino)methyl)-N-(4-(5-(trifluoromethyl)-1,2,4-oxadiazol-3-yl)phenyl)piperidine-1-carboxamide] | 11 | 3 | 76 | – | – | –
Cn1nccc1C(=O)NCC1CCCCN1C(=O)Nc1ccc(-c2noc(C(F)(F)F)n2)cc1 (stereo not drawn) [Example 41, 2-((((1-methyl-1H-pyrazol-5-yl)carbonyl)amino)methyl)-N-(4-(5-(trifluoromethyl)-1,2,4-oxadiazol-3-yl)phenyl)piperidine-1-carboxamide] | 59 | 7 | 98 | – | – | –
Cn1nc(C(=O)NCC2CCCCN2C(=O)Nc2ccc(-c3noc(C(F)(F)F)n3)cc2)c2ccccc21 (stereo not drawn) [Example 42, 1-methyl-N-((1-((4-(5-(trifluoromethyl)-1,2,4-oxadiazol-3-yl)phenyl)carbamoyl)piperidin-2-yl)methyl)-1H-indazole-3-carboxamide] | 8 | 3 | 71 | – | – | –
O=C(NCC1CCCCN1C(=O)Nc1ccc(-c2noc(C(F)(F)F)n2)cc1)C1CCc2ccccc2O1 (stereo not drawn) [Example 43, 2-(((3,4-dihydro-2H-chromen-2-ylcarbonyl)amino)methyl)-N-(4-(5-(trifluoromethyl)-1,2,4-oxadiazol-3-yl)phenyl)piperidine-1-carboxamide] | 57 | 7 | 74 | – | – | –
